Broadly, the MIC is the lowest concentration found to suppress growth.

Values after ≈ are worked out from the molar mass of the structure shown.

One test deals with Staph. aureus 209-P. In words: Anti-bacterial activity (MIC), agar dilution. It is filed as cell-based. The conditions noted are these: Staph. aureus 209-P; agar dilution, about 10^6 CFU/ml, 18 hours, 37° C. The method, then: (§1) MIC (μg/ml) were determined by an agar dilution method [Chemotherapy (Japan), 29, 76-79, 1981]. Overnight cultures of the bacterial strains in Mueller-Hinton broth were diluted to final concentration of about 10^6 CFU/ml, and 5 μl of each bacterial suspension was spotted onto Mueller-Hinton agar plates that contained twofold serial dilutions of antibiotics. MICs were measured after incubation for 18 hours at 37° C.
On the technique in general: In agar dilution the substance is mixed into plates at graded concentrations.
Compound `CC(O)C[N+](C)(C)CC=CC1=C(C(=O)[O-])N2C(=O)C(NC(=O)C(=NOCF)c3nsc(N)n3)C2SC1` (stereo not drawn) [Example 66] yielded an MIC of 0.4 µg/mL (≈ 0.736 µM).

Still in this test, the particulars now being: Staphylococcus aureus, 209P, 18 h, Staph. aureus 209-P; agar dilution, about 10^6 CFU/ml, 18 hours, 37° C.; read-out: MIC.
In the case of `NC(=O)NCC[N+]1(C/C=C/C2=C(C(=O)[O-])N3C(=O)[C@@H](NC(=O)/C(=N\OCF)c4nsc(N)n4)[C@H]3SC2)CCOCC1` [Example 36], the MIC was 0.2 µg/mL (≈ 0.326 µM).

Regarding `Nc1nc(/C(=N/OCF)C(=O)N[C@@H]2C(=O)N3C(C(=O)[O-])=C(/C=C/C[N+]4(CCO)CCOCC4)CS[C@H]23)ns1` [Example 37], the MIC worked out at 0.2 µg/mL (≈ 0.35 µM).

As to `Nc1nc(/C(=N/OCF)C(=O)N[C@@H]2C(=O)N3C(C(=O)[O-])=C(/C=C/C[N+]4(CC(O)CO)CCOCC4)CS[C@H]23)ns1` (stereo partly drawn) [Example 38], the minimum inhibitory concentration (MIC) came out at 0.4 µg/mL (≈ 0.665 µM).

As to `CC(O)C[N+]1(C/C=C/C2=C(C(=O)[O-])N3C(=O)[C@@H](NC(=O)/C(=N\OCF)c4nsc(N)n4)[C@H]3SC2)CCOCC1` (stereo partly drawn) [Example 39], the MIC is 0.2 µg/mL (≈ 0.342 µM).

The test system of the next test is Pseud. aeruginosa EP-01. In words: Anti-bacterial activity (MIC), agar dilution. The format is cell-based. The following applies: Pseud. aeruginosa EP-01; agar dilution, about 10^6 CFU/ml, 18 hours, 37° C. How it is done: as §1
`CC(O)C[N+](C)(C)CC=CC1=C(C(=O)[O-])N2C(=O)C(NC(=O)C(=NOCF)c3nsc(N)n3)C2SC1` (stereo not drawn) [Example 66]: the minimal inhibitory concentration (MIC) was 0.8 µg/mL (≈ 1.47 µM).

The test is the same for the next values; noted with them: Pseudomonas aeruginosa, EP01, 18 h, Pseud. aeruginosa EP-01; agar dilution, about 10^6 CFU/ml, 18 hours, 37° C.; read-out: MIC.
Take `NC(=O)NCC[N+]1(C/C=C/C2=C(C(=O)[O-])N3C(=O)[C@@H](NC(=O)/C(=N\OCF)c4nsc(N)n4)[C@H]3SC2)CCOCC1` [Example 36]: the minimum inhibitory concentration (MIC) was 1.56 µg/mL (≈ 2.54 µM).

For `Nc1nc(/C(=N/OCF)C(=O)N[C@@H]2C(=O)N3C(C(=O)[O-])=C(/C=C/C[N+]4(CCO)CCOCC4)CS[C@H]23)ns1` [Example 37], the minimal inhibitory concentration (MIC) stood at 1.56 µg/mL (≈ 2.73 µM).

Turning to `Nc1nc(/C(=N/OCF)C(=O)N[C@@H]2C(=O)N3C(C(=O)[O-])=C(/C=C/C[N+]4(CC(O)CO)CCOCC4)CS[C@H]23)ns1` (stereo partly drawn) [Example 38], the MIC was 1.56 µg/mL (≈ 2.59 µM).

With `CC(O)C[N+]1(C/C=C/C2=C(C(=O)[O-])N3C(=O)[C@@H](NC(=O)/C(=N\OCF)c4nsc(N)n4)[C@H]3SC2)CCOCC1` (stereo partly drawn) [Example 39], the minimum inhibitory concentration (MIC) stood at 1.56 µg/mL (≈ 2.66 µM).

For a further test, the system named is Kleb. pneumoniae EK-6. In words: Anti-bacterial activity (MIC), agar dilution. The conditions noted are these: Kleb. pneumoniae EK-6; agar dilution, about 10^6 CFU/ml, 18 hours, 37° C. It is filed as cell-based. How it is done:
as §1
`CC(O)C[N+](C)(C)CC=CC1=C(C(=O)[O-])N2C(=O)C(NC(=O)C(=NOCF)c3nsc(N)n3)C2SC1` (stereo not drawn) [Example 66] had a minimum inhibitory concentration (MIC) not above 0.025 µg/mL.

Staying with this test, now noted: Klebsiella pneumoniae, EK6, 18 h, Kleb. pneumoniae EK-6; agar dilution, about 10^6 CFU/ml, 18 hours, 37° C.; read-out: MIC.
For the compound `NC(=O)NCC[N+]1(C/C=C/C2=C(C(=O)[O-])N3C(=O)[C@@H](NC(=O)/C(=N\OCF)c4nsc(N)n4)[C@H]3SC2)CCOCC1` [Example 36], the minimal inhibitory concentration (MIC) is not above 0.025 µg/mL.

On to `Nc1nc(/C(=N/OCF)C(=O)N[C@@H]2C(=O)N3C(C(=O)[O-])=C(/C=C/C[N+]4(CCO)CCOCC4)CS[C@H]23)ns1` [Example 37], for which the minimum inhibitory concentration (MIC) is not above 0.025 µg/mL.

In the case of `Nc1nc(/C(=N/OCF)C(=O)N[C@@H]2C(=O)N3C(C(=O)[O-])=C(/C=C/C[N+]4(CC(O)CO)CCOCC4)CS[C@H]23)ns1` (stereo partly drawn) [Example 38], the minimal inhibitory concentration (MIC) is 0.05 µg/mL (≈ 0.0831 µM).

As for `CC(O)C[N+]1(C/C=C/C2=C(C(=O)[O-])N3C(=O)[C@@H](NC(=O)/C(=N\OCF)c4nsc(N)n4)[C@H]3SC2)CCOCC1` (stereo partly drawn) [Example 39], the MIC was not above 0.025 µg/mL.

In the next test the test system is Morganella morganii EP-14. In words: Anti-bacterial activity (MIC), agar dilution. It is filed as cell-based. The conditions noted are these: Morganella morganii, EP14, 18 h, about 10^6 CFU/ml, 37° C., read-out: MIC. The method, then: as §1
Turning to `NC(=O)NCC[N+]1(C/C=C/C2=C(C(=O)[O-])N3C(=O)[C@@H](NC(=O)/C(=N\OCF)c4nsc(N)n4)[C@H]3SC2)CCOCC1` [Example 36], the MIC was 0.05 µg/mL (≈ 0.0815 µM).

Take `Nc1nc(/C(=N/OCF)C(=O)N[C@@H]2C(=O)N3C(C(=O)[O-])=C(/C=C/C[N+]4(CCO)CCOCC4)CS[C@H]23)ns1` [Example 37]: the MIC is 0.05 µg/mL (≈ 0.0875 µM).

As for `Nc1nc(/C(=N/OCF)C(=O)N[C@@H]2C(=O)N3C(C(=O)[O-])=C(/C=C/C[N+]4(CC(O)CO)CCOCC4)CS[C@H]23)ns1` (stereo partly drawn) [Example 38], the MIC worked out at 0.1 µg/mL (≈ 0.166 µM).

Regarding `CC(O)C[N+]1(C/C=C/C2=C(C(=O)[O-])N3C(=O)[C@@H](NC(=O)/C(=N\OCF)c4nsc(N)n4)[C@H]3SC2)CCOCC1` (stereo partly drawn) [Example 39], the minimum inhibitory concentration (MIC) was 0.05 µg/mL (≈ 0.0854 µM).

Still in this test, the particulars now being: about 10^6 CFU/ml, 18 hours, 37° C.
For `CC(O)C[N+](C)(C)CC=CC1=C(C(=O)[O-])N2C(=O)C(NC(=O)C(=NOCF)c3nsc(N)n3)C2SC1` (stereo not drawn) [Example 66], the MIC was not above 0.025 µg/mL.

The next test deals with Escher. coli NIHJ. Put plainly: Anti-bacterial activity (MIC), agar dilution. The format is cell-based. The conditions noted are these: Escher. coli NIHJ; agar dilution, about 10^6 CFU/ml, 18 hours, 37° C. How it is done: as §1
Compound `CC(O)C[N+](C)(C)CC=CC1=C(C(=O)[O-])N2C(=O)C(NC(=O)C(=NOCF)c3nsc(N)n3)C2SC1` (stereo not drawn) [Example 66] registered a minimum inhibitory concentration (MIC) not above 0.025 µg/mL.

The test is the same for the next values; noted with them: Escherichia coli, 18 h, Escher. coli NIHJ; agar dilution, about 10^6 CFU/ml, 18 hours, 37° C.; read-out: MIC.
On to `NC(=O)NCC[N+]1(C/C=C/C2=C(C(=O)[O-])N3C(=O)[C@@H](NC(=O)/C(=N\OCF)c4nsc(N)n4)[C@H]3SC2)CCOCC1` [Example 36], for which the MIC was 0.05 µg/mL (≈ 0.0815 µM).

In the case of `Nc1nc(/C(=N/OCF)C(=O)N[C@@H]2C(=O)N3C(C(=O)[O-])=C(/C=C/C[N+]4(CCO)CCOCC4)CS[C@H]23)ns1` [Example 37], the MIC amounted to 0.05 µg/mL (≈ 0.0875 µM).

Turning to `Nc1nc(/C(=N/OCF)C(=O)N[C@@H]2C(=O)N3C(C(=O)[O-])=C(/C=C/C[N+]4(CC(O)CO)CCOCC4)CS[C@H]23)ns1` (stereo partly drawn) [Example 38], the MIC stood at 0.1 µg/mL (≈ 0.166 µM).

As to `CC(O)C[N+]1(C/C=C/C2=C(C(=O)[O-])N3C(=O)[C@@H](NC(=O)/C(=N\OCF)c4nsc(N)n4)[C@H]3SC2)CCOCC1` (stereo partly drawn) [Example 39], the minimum inhibitory concentration (MIC) came to 0.05 µg/mL (≈ 0.0854 µM).

In a further test the test system is Ser. marcescens ES-75. In words: Anti-bacterial activity (MIC), agar dilution. The format is cell-based. The conditions noted are these: Ser. marcescens ES-75; agar dilution, about 10^6 CFU/ml, 18 hours, 37° C. How it is done: as §1
For the compound `CC(O)C[N+](C)(C)CC=CC1=C(C(=O)[O-])N2C(=O)C(NC(=O)C(=NOCF)c3nsc(N)n3)C2SC1` (stereo not drawn) [Example 66], the minimum inhibitory concentration (MIC) is not above 0.025 µg/mL.

The same test, now with this note: Serratia marcescens, ES75, 18 h, Ser. marcescens ES-75; agar dilution, about 10^6 CFU/ml, 18 hours, 37° C.; read-out: MIC.
Take `NC(=O)NCC[N+]1(C/C=C/C2=C(C(=O)[O-])N3C(=O)[C@@H](NC(=O)/C(=N\OCF)c4nsc(N)n4)[C@H]3SC2)CCOCC1` [Example 36]: the MIC was determined as 0.1 µg/mL (≈ 0.163 µM).

As to `Nc1nc(/C(=N/OCF)C(=O)N[C@@H]2C(=O)N3C(C(=O)[O-])=C(/C=C/C[N+]4(CCO)CCOCC4)CS[C@H]23)ns1` [Example 37], the MIC is 0.1 µg/mL (≈ 0.175 µM).

`Nc1nc(/C(=N/OCF)C(=O)N[C@@H]2C(=O)N3C(C(=O)[O-])=C(/C=C/C[N+]4(CC(O)CO)CCOCC4)CS[C@H]23)ns1` (stereo partly drawn) [Example 38]: the MIC is 0.2 µg/mL (≈ 0.332 µM).

In the case of `CC(O)C[N+]1(C/C=C/C2=C(C(=O)[O-])N3C(=O)[C@@H](NC(=O)/C(=N\OCF)c4nsc(N)n4)[C@H]3SC2)CCOCC1` (stereo partly drawn) [Example 39], the minimum inhibitory concentration (MIC) worked out at 0.1 µg/mL (≈ 0.171 µM).

Source of the values: US4921850A, “3-propenylcephem derivative” (Eisai Co., Ltd., priority 1986, dated 1990).
